For 87 compounds, melting point results are on record in a melting point compilation (Tetko et al.; mined from patent text by program, amines drawn as free bases though some values may be those of a salt).

The structures appear in SMILES notation.

A word on the melting point: it is the temperature of the solid-liquid transition. For the compound `CC(C)Oc1cc(CCCOc2cc(CCC(=O)O)n(-c3ccccc3)n2)cc(COc2ccc(Cl)cc2Cl)c1`, the melting point fell in the range of 104 to 106 °C. In turn, `Cc1ccc(-c2ccccc2C(=O)Nc2ccc(C(=O)N3C[C@@H]4C[C@@H](O)CN4c4ccccc43)cc2)cc1` registered a melting point of 163 to 164 °C. For `CCC1(C(NC(=O)c2ccc(Cl)cc2)NC(=NC#N)Nc2cccnc2)COCOC1` (configuration not stated) the value was 194 to 195 °C. `COc1ccc(Nc2ccc(Nc3ncnc4cc(-c5ccccc5)sc34)cc2)cc1` came in with a melting point of 210 to 211 °C. Compound `C=C(C)C(=O)OCCOc1ccc(OCCOC(=O)c2ccc(O)c(Cl)c2)cc1` yielded a melting point of 105 to 106 °C. For `CCOC(=O)COc1c(C)cc(C(OC)(C(F)(F)F)C(F)(F)F)cc1C` the value was 97 to 98 °C.

As to `CSc1ccc(C2(C(C)=O)C=CC=CC2)cc1` (configuration not stated), the melting point fell in the range of 182 to 184 °C.

In the case of `COC(=O)C(C)NC(=O)c1cc2cc(Cl)ccc2[nH]1` (single isomer, unassigned; (+)), the melting point was 199 to 201 °C. For `CS(=O)(=O)N(c1cccc(CN2CCN(C(c3ccccc3)c3ccccc3)CC2)n1)S(C)(=O)=O` the value was 167 to 169 °C; for `Cc1cc(C(=O)NC(C#N)c2ccccc2)n(C)n1` (configuration not stated), 135 to 136 °C; for `O=C(N[C@H](Cc1cccc(OCC(F)(F)F)c1)[C@@H](O)c1ccc(F)cc1)c1ccc(F)c2ccccc12` (racemic), 192 to 193 °C. For `Cc1ccc(-n2c(-c3ccc(Br)cc3)c(Br)c(Br)c2-c2ccc(Br)cc2)cc1` the value was 240 to 242 °C; for `O=CNCN1CCCCCC1=O`, 48 °C. For `O=C(O)Cc1cnc(Cc2ccc(NC(=O)c3ccc(Cl)c(Cl)c3)cc2)n2ccnc12` the value was 185 to 188 °C. Regarding `CC(=O)OCC1OC(n2ccc(=O)[nH]c2=O)C(OC(C)=O)C1OC(C)=O` (configuration not stated), the melting point was in the range of 129 to 130 °C. The value for `Cn1c2cccc(Br)c2c2c(CC(=O)N3CCCC3)nn(-c3ccccc3)c(=O)c21` was 209 to 210 °C; that for `CNS(=O)(=O)c1cccc(NC(=O)c2cnn3c(C(F)(F)F)cc(-c4ccc(C(F)(F)F)cc4)nc23)c1` was 232 °C. For `COc1ccccc1N1CCc2c1c1cccc(OC)c1[nH]c2=O` the value was 185 to 188 °C; for `CCOC(=O)c1nnc(N2CCN(c3ccc(N4CC(CNC(C)=O)OC4=O)cc3)CC2F)s1` (configuration not stated), 228 to 230 °C. In turn, `CCC1(C(=O)C=Cc2ccc(OC)c(OC)c2)CC1` had a melting point of 63 to 65 °C.

In the case of `Cc1cc(C)c2cccc(Cl)c2n1`, the melting point fell in the range of 66 to 68 °C. Regarding `CCOC(=O)c1ncn(S(=O)(=O)N(C)C)n1`, the melting point lay in the range of 78.5 to 81.5 °C. The compound `N#Cc1ccc(CCCCC2CC(c3cccnc3)=CC(=O)O2)cc1` (configuration not stated) registered a melting point of 110 to 112 °C. The value for `COc1ccc(-c2cc3ncnc(Nc4ccc5[nH]ccc5c4)c3s2)cn1` was 243 to 249 °C; that for `CC(C)(C)OC(=O)C=Cc1cnc2ccccc2c1` was 128 to 129 °C; that for `Cc1cccc(NC(=O)NC2N=C(c3ccccc3F)c3ccccc3N(Cc3ncccc3C)C2=O)c1` (racemic) was 216 to 217 °C. For `CCOC(=O)C(CCCCCc1ccc(Cl)cc1)NS(C)(=O)=O` (configuration not stated) the value was 60 to 62 °C. For `COc1cccc2c1OC1C=CC=C3C(=O)N(CC4CC4)C(=O)CC321` (configuration not stated) the value was 166 to 167 °C; for `O=C(O)c1cccc(OCCCCCCc2cccc(OCc3ccccc3)c2OCc2ccccc2)c1`, 72 °C. Consider `O=Cc1c[nH]c2cc(F)c(OCc3ccccc3)cc12`, for which the melting point was found to be 190 °C. As to `Cn1c(-c2ccc(OCC(=O)O)cc2)nc2c3ccccc3ccc21`, the melting point turned out to be 227 °C. The value for `O=C1C2=C(CCCC2)C(SSC2C3=C(CCCC3)C(=O)N2c2ccc(Cl)cc2F)N1c1ccc(Cl)cc1F` (configuration not stated) was 146 to 147 °C; that for `Cc1nc(N)c2nc(C)n(CCCCNS(C)(=O)=O)c2c1C` was 228 to 230 °C; that for `N#Cc1cc(Cc2cccc(Cl)c2)ccc1N` was 84.5 to 85.5 °C.

Compound `Cc1oc(-c2ccccc2)nc1COc1ccc2cc(CCCCc3nnn[nH]3)oc2c1` returned a melting point of 114 to 115 °C. The value for `CCCC(C#N)(Cn1cncn1)c1ccc(F)cc1` (configuration not stated) was 75 to 76 °C; that for `O=Cc1csc2cc([N+](=O)[O-])ccc12` was 187 to 192 °C; that for `ON=C1Cc2ccccc2C1` was 145 to 148 °C. The compound `O=C1Cc2cc([N+](=O)[O-])ccc2Sc2ccccc21` registered a melting point of 171 to 172 °C.

On to `COc1ccccc1/C=C/CN1CCC(=O)C(C(c2ccccc2)c2ccccc2)C1` (configuration not stated), for which the melting point was 117 to 118 °C.

For `CCCCc1nc(C(=O)C(C)C)c(C#N)n1Cc1ccc(-c2ccccc2-c2nnnn2C(c2ccccc2)(c2ccccc2)c2ccccc2)cc1`, the melting point was in the range of 115 to 116 °C.

On to `COC(=O)C(=O)C1=C(O)c2ccsc2SC1`, for which the melting point is 53 to 56 °C. In the case of `ClCc1cccc(CCl)n1`, the melting point fell in the range of 74.5 to 75.5 °C.

`COCCN(C)c1nnc(-c2ccc(-c3ccccc3)nc2)n1-c1cccc2nonc12`: the melting point was 133 to 134 °C. The value for `Nc1cc(Oc2ccc3c(C(=O)Nc4ccc(F)c(C5CC5)c4)cccc3c2)ncn1` was 256 to 257 °C; that for `COC(=O)c1cc(NC(=O)C2=C(C)OCCS2)ccc1Cl` was 115 to 117 °C. The value for `COc1ccc(C=Cc2ccc(CBr)c(Cl)c2)c(Cl)c1` was 106 to 108 °C. `Cc1sc2cc(CO)ccc2c1C(=O)O`: the melting point lay within 195 to 196 °C. The value for `N#Cc1ccc(C2(COc3cccc4cc(NS(=O)(=O)C(F)(F)F)ccc34)N=CNO2)cc1` (configuration not stated) was 184 to 185 °C; that for `COc1cn(-c2ccc(-n3cccn3)cc2F)nc(C(C)=O)c1=O` was 159 to 161 °C. For `N#CC(=NOCF)C(=N)NCl` the value was 97 to 98 °C; for `CC1CCCN(C(=O)c2ccc([N+](=O)[O-])cc2)C1` (configuration not stated), 70.2 to 71.3 °C. For `COC(=O)C1=C(C)Nc2nccn2C1C1CCCCC1` (configuration not stated) the value was 178 °C; for `COC(=O)c1cc(I)c(C(F)(F)F)cc1N`, 101 to 103 °C.

For the compound `BrCc1c(Br)c(CBr)c(Br)c(CBr)c1Br`, the melting point is 220 to 223 °C. For `CN(C)c1ccc(C(=O)CCCN2CCC(C(O)(c3ccccc3)c3ccccc3)CC2)cc1` the value was 148 to 150 °C; for `CC(Cn1ccc(-c2ccccc2Cl)n1)C(=O)N(C)C` (configuration not stated), 87 to 88 °C; for `CS(=O)(=O)Nc1ccc(CCOc2ccc(C=C3SC(=O)NC3=O)cc2)cc1`, 130 °C. For `COc1ccc(-c2nc(S(=O)(=O)c3ccccc3)[nH]c2-c2ccc(OC)cc2)cc1` the value was 106 °C. The value for `CN1CCN=C1C(O)(c1ccccc1)c1ccccn1` (configuration not stated) was 105 to 108 °C. `Nc1c(F)c(N2CCC(n3cc(-c4ccccc4)nn3)C2)c(F)c2c1c(=O)c(C(=O)O)cn2C1CC1` (configuration not stated) had a melting point of 265 °C. For `CC1=C(C(=O)O)N2C(=O)C(NC(=O)Cc3ccc(CN=[N+]=[N-])cc3)C2SC1` (configuration not stated) the value was 154 to 155 °C; for `CCCCCCCCCCCCP(=O)(O)CCCNC(=O)OCc1ccccc1`, 115 to 116 °C. For `O=C(O)c1cn(-c2ccc(F)cc2)c2cc(-c3ccncc3)ccc2c1=O` the value was 280 to 281 °C; for `CCCCCCCCCCCCCC(=O)NCCOCCn1c(CCOC)nc2c(N)nc3ccccc3c21`, 85 to 87 °C. `N#Cc1ccc(OCc2cccnc2)cc1OC(C(=O)O)c1ccccc1` (racemic) gave a melting point of 201 to 202 °C. For `Nc1cc(Cl)nc(C(=O)O)c1C(F)F` the value was 149 to 151 °C; for `CC(=O)c1nn(-c2c(Cl)cc(C(F)(F)F)cc2Cl)c(NSC(F)(F)F)c1S(C)=O` (configuration not stated), 67 to 102 °C.

`O=S(=O)(Nc1cccc(OCc2cccc(-c3ccccc3)n2)c1)C(F)(F)F`: the melting point lay in the range of 115 to 117 °C. For the compound `CC(CSc1nn(-c2ccccc2)c2c1CCC2)C(=O)O` (configuration not stated), the melting point was 84 to 85 °C. For `C[C@@H]1CNC[C@H](C)N1c1ncccn1` the value was 130 to 135 °C.

In turn, `CC1(OC(=O)c2ncn3c2C2CCCN2C(=O)c2c(Cl)cccc2-3)CCCC1` (configuration not stated) yielded a melting point of 190 to 191 °C.

The compound `COc1ccc(-c2nc3cc4c(cc3[nH]2)NC(=O)C4C(C)C)cc1` (configuration not stated) gave a melting point of 326 to 328 °C. For `CNc1cc(Br)cc(S(=O)(=O)c2ccccc2)c1` the value was 143 to 145 °C; for `COc1ccc(-c2cc(-c3ccccc3)c(-c3ccccc3)s2)c(OC)c1`, 107 to 110 °C. The value for `Cc1nc2ccc(CNS(=O)(=O)c3ccccc3)cc2n1Cc1ccccc1Cl` was 164 to 167 °C; that for `COc1cc2ncc(C#N)c(Nc3cc(Cl)c(O)c(Cl)c3)c2cc1OC` was above 250 °C. For `CC(C)(C)OC(=O)C(=NO)C1=Nc2ccc(Cl)cc2C(c2ccccc2F)=NC1` the value was 212 to 214 °C; for `C[C@H](NC(=O)COCCNC(=O)C12CC3CC(CC(C3)C1)C2)C(=O)N[C@H](CCC(=O)O)C(N)=O`, 84 to 86 °C. `CCOC(=O)CN1CCN(C(C)(C)C=CC(=O)Nc2cc3c(Nc4ccc(F)c(Cl)c4)ncnc3cc2OCC2CC2)CC1` showed a melting point of 165 to 167 °C. The value for `CC(Br)C(=O)NC(C)(C)c1ccccc1` (configuration not stated) was 102 to 103 °C.

Consider `COc1ccc(N2CC(CN3CCC(O)(c4ccccc4)CC3)OC2=O)cc1` (configuration not stated), for which the melting point lay within 141 to 143 °C.

`CCNC(=O)NCCc1cccc(-c2nc(=O)c3ccccc3s2)n1` registered a melting point of 240 to 242 °C. For `CCOC(=O)C(SC)c1ccccc1NC` (configuration not stated) the value was 87.5 to 88.5 °C; for `COc1ccc2c(Cc3c(Cl)cncc3Cl)n[nH]c(=O)c2c1`, 259 to 262 °C. For `COC(=O)c1cc(Oc2ccc(F)cc2F)ncc1N` the value was 102 to 104 °C; for `Cc1nc2cnc3ccc(Cl)cc3c2n1-c1ccccc1Cl`, 178 °C.
